Source: patent US20170173011A1, “METHODS OF TREATING A BRUTON'S TYROSINE KINASE DISEASE OR DISORDER” (Celgene Avilomics Research, Inc., priority 2014, published 2017)

Key:
[1] = tested on: B6.sle1 mouse SLE model; conditions: literature (Hutcheson et al.); reduced anti histone, anti ssDNA, kidney lymphocytes and renal damage; cited from earlier work
[2] = tested on: NZBxNZW F1 mice; conditions: literature; cited from earlier work
[3] = tested on: NZBxNZW F1 mouse SLE model; experiment: anti-dsDNA autoantibody quantitation by ELISA in serum, NZBxNZW F1 mouse SLE model; format: in vivo
Experimental: (§1) Compound 1 besylate was tested in the NZBxNZW Fl mouse SLE model. Treatment efficacy of Compound 1 besylate in this model was compared with cyclophosphamide, and a vehicle control. Principal end measures were autoantibodies against double stranded DNA (dsDNA) and protein in the urine.
Female NZBxNZW FI mice were housed in filter-top Nalgene cages, maintained on a 12-hour light/12-hour dark cycle with a room temperature of 70° F.+/−4° F. Mice were allowed to acclimate to the laboratory environment for approximately 5-7 days to ascertain their continued good health. Irradiated laboratory rodent chow and autoclaved water were supplied ad libitum.
Eighty NZBxNZW F1 female mice ˜12 weeks in age were obtained from Jackson Laboratory and were acclimatized for one week. After the acclimatization period was complete, each mouse that was successfully acclimatized was ear tagged and body weight recorded.
An initial bleed was performed prior to treatment initiation and serum prepared from the blood sampled. Serum samples were stored at −80° C. Following treatment initiation, blood was collected once every two weeks during the in-life phase for subsequent serum preparation.
(§2) Treatment was administered when the mice reached ˜20 weeks of age as follows:
(§3) Proteinuria: Urine was tested once every two weeks when the animals reached ˜13 weeks of age. Urine analysis was preformed midweek at approximately the same time of the day. Weekly urine analysis commenced when the animals reached the age of ˜18 weeks. Proteinuria levels were evaluated using Albustix urine strips. Serum was collected via collection of blood from tail bleeds when animals reached 13 weeks in age, then prior to initiating the treatment and thereafter twice a month.
Results. Individual autoantibody development in NZBxNZW Fl mice over time is depicted in FIG. 1A. Serum samples were collected from vehicle treated mice at the times indicated and an anti-dsDNA quantitation by ELISA performed. During the course of measurement from 18 weeks of age to 36 weeks of age, six (6) out of ten (10) mice developed autoantibodies against dsDNA greater than 400 KU/ml during the course of disease development and eight out of ten developed dsDNA antibodies greater than 200 kU/ml.

[4] = tested on: NZBxNZW F1 mouse SLE model; experiment: urine protein (proteinuria, Albustix strips) in NZBxNZW F1 mouse SLE model; format: in vivo
Experimental: as §1
Urine analysis was initiated when the animals reached 13-14 weeks of age. Initially urine analysis was performed once in two weeks. When the animals reached 18-19 weeks of age, weekly urine analysis for proteinuria levels was performed using Albustix® Reagent strips for Urinalysis (Bayer, Inc). Results were scored on a 0-4 scale using the following criteria:
When the mice reached 19 weeks of age, all animals were evaluated with respect to their proteinuria scores. Based on that evaluation, […] mice were selected and assigned to 6 groups of 10 mice each and one group of 5 mice. The mice were assigned such that the distributions of proteinuria scores among all groups were as uniform as possible.
as §2, §3

In the case of C=CC(=O)N1CCC[C@@H](n2nc(-c3ccc(Oc4ccccc4)cc3)c3c(N)ncnc32)C1 [PCI 32765/Ibrutinib], the “efficacy in B6.sle1 mouse SLE model” value [1] is given as “efficacious”.

In the case of CN1CCN(c2ccc(Nc3cc(-c4cccc(-n5ccc6cc(C7CC7)cc(F)c6c5=O)c4CO)cn(C)c3=O)nc2)CC1 [RN486], the “effect on lupus nephritis / SLE in NZBxNZW F1 mice” value (“effect on lupus nephritis / SLE” for short) [2] is given as “efficacious”.

With C=CC(=O)Nc1cccc(Nc2nc(Nc3ccc(OCCOC)cc3)ncc2F)c1 [Compound 1 besylate, N-(3-(5-fluoro-2-(4-(2-methoxyethoxy)phenylamino)pyrimidin-4-ylamino)phenyl)acrylamide besylate] the “number of treated mice that developed dsDNA antibodies over 400 kU/ml” value ([3]; 50 mg/kg BID PO for 12 weeks, vehicle: six (6) of ten (10)) was 2 of ten (10) treated mice, the “number of mice with nearly complete suppression of anti-dsDNA development” value ([3]; 50 mg/kg BID PO, of ten treated mice) was 6 mice and the “anti-dsDNA autoantibody development (FIG. 1C)” value ([3]; 50 mg/kg BID PO, weeks 29 through 33) was “reduced anti-dsDNA autoantibody development”. For the same compound, the “number of mice with blunted anti-dsDNA responses at the end of the study” value ([3]; 50 mg/kg BID PO, weeks 35 and 36, of ten treated mice) was 2 mice, the “protein levels measured in the urine relative to vehicle (FIG. 2)” value ([4]; 50 mg/kg BID PO for 12 weeks) was “reduced protein levels” and the “protein levels measured in the urine relative to vehicle (FIG. 2)” value ([4]; 100 mg/kg QD PO for 12 weeks) was “reduced protein levels”. The “urine protein, dose dependence” value ([4]; across dose groups) was “dose-associated trend of reduced urine protein”.

In the case of O=P1(N(CCCl)CCCl)NCCCO1 (centres unmarked) [Cyclophophamide, Cyclophosphamide], the “effect on lupus nephritis / SLE” value [2] is given as “inhibit lupus nephritis”.

For N#CN1CCCC(n2nc(-c3ccc(Oc4ccc(F)cc4F)cc3)c(C(N)=O)c2N)C1 (centres unmarked) [PF-06250112], the “effect on lupus nephritis / SLE” value [2] is given as “efficacious”.
